# From paper PMC2949283 (The Biochemical journal, 2009)
# Assays:
# [1] = biological target: Wild Type HuAChE (Homo sapiens, UniProt P22303); experiment: HuAChE inhibition kinetics; format: biochemical; settings: Wild Type HuAChE
# [2] = biological target: W86A HuAChE (Homo sapiens, UniProt P22303, W117A); experiment: HuAChE inhibition kinetics; format: biochemical; settings: W86A HuAChE
# [3] = biological target: W86F HuAChE (Homo sapiens, UniProt P22303, W117F); experiment: HuAChE inhibition kinetics; format: biochemical; settings: W86F HuAChE
# Sequence of W86F HuAChE (P22303 32-614 W117F): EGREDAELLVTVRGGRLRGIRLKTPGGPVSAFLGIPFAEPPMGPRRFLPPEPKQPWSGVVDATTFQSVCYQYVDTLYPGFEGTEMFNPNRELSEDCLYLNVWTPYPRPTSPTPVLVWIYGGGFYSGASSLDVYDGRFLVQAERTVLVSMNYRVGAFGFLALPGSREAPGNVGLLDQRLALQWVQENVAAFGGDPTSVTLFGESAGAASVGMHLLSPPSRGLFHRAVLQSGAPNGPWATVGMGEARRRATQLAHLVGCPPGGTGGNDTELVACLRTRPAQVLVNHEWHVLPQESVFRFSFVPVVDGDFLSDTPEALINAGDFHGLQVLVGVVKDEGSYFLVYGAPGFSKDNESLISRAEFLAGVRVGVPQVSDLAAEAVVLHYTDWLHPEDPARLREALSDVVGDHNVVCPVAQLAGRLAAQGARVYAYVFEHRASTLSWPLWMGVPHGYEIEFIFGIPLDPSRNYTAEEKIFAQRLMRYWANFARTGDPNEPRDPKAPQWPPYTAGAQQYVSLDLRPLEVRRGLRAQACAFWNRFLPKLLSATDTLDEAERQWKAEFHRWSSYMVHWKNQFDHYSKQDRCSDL
# [4] = biological target: Y133A HuAChE (Homo sapiens, UniProt P22303, Y164A); experiment: HuAChE inhibition kinetics; format: biochemical; settings: Y133A HuAChE
# Sequence of Y133A HuAChE (P22303 32-614 Y164A): as the sequence (P22303 32-614 W117F) above, with F86W, Y133A counted along it
# [5] = biological target: Y337A HuAChE (Homo sapiens, UniProt P22303, Y368A); experiment: HuAChE inhibition kinetics; format: biochemical; settings: Y337A HuAChE
# Sequence of Y337A HuAChE (P22303 32-614 Y368A): as the sequence (P22303 32-614 W117F) above, with F86W, Y337A counted along it
# [6] = biological target: Y337F HuAChE (Homo sapiens, UniProt P22303, Y368F); experiment: HuAChE inhibition kinetics; format: biochemical; settings: Y337F HuAChE
# Sequence of Y337F HuAChE (P22303 32-614 Y368F): as the sequence (P22303 32-614 W117F) above, with F86W, Y337F counted along it
# [7] = biological target: F338A HuAChE (Homo sapiens, UniProt P22303, F369A); experiment: HuAChE inhibition kinetics; format: biochemical; settings: F338A HuAChE
# Sequence of F338A HuAChE (P22303 32-614 F369A): as the sequence (P22303 32-614 W117F) above, with F86W, F338A counted along it
# [8] = biological target: Y133F HuAChE (Homo sapiens, UniProt P22303, Y164F); experiment: HuAChE inhibition kinetics; format: biochemical; settings: Y133F HuAChE
# Sequence of Y133F HuAChE (P22303 32-614 Y164F): as the sequence (P22303 32-614 W117F) above, with F86W, Y133F counted along it
# [9] = biological target: E202A HuAChE (Homo sapiens, UniProt P22303, E233A); experiment: HuAChE inhibition kinetics; format: biochemical; settings: E202A HuAChE
# Sequence of E202A HuAChE (P22303 32-614 E233A): as the sequence (P22303 32-614 W117F) above, with F86W, E202A counted along it
# [10] = biological target: E202Q HuAChE (Homo sapiens, UniProt P22303, E233Q); experiment: HuAChE inhibition kinetics; format: biochemical; settings: E202Q HuAChE
# Sequence of E202Q HuAChE (P22303 32-614 E233Q): as the sequence (P22303 32-614 W117F) above, with F86W, E202Q counted along it
# [11] = biological target: E450A HuAChE (Homo sapiens, UniProt P22303, E481A); experiment: HuAChE inhibition kinetics; format: biochemical; settings: E450A HuAChE
# Sequence of E450A HuAChE (P22303 32-614 E481A): as the sequence (P22303 32-614 W117F) above, with F86W, E450A counted along it
# [12] = biological target: G122A HuAChE (Homo sapiens, UniProt P22303, G153A); experiment: HuAChE inhibition kinetics; format: biochemical
# Sequence of G122A HuAChE (P22303 32-614 G153A): as the sequence (P22303 32-614 W117F) above, with F86W, G122A counted along it
# [13] = biological target: F295A HuAChE (Homo sapiens, UniProt P22303, F326A); experiment: HuAChE inhibition kinetics; format: biochemical; settings: F295A HuAChE
# Sequence of F295A HuAChE (P22303 32-614 F326A): as the sequence (P22303 32-614 W117F) above, with F86W, F295A counted along it
# [14] = biological target: F297A HuAChE (Homo sapiens, UniProt P22303, F328A); experiment: HuAChE inhibition kinetics; format: biochemical; settings: F297A HuAChE
# Sequence of F297A HuAChE (P22303 32-614 F328A): as the sequence (P22303 32-614 W117F) above, with F86W, F297A counted along it
# [15] = biological target: T1, D74N HuAChE (Homo sapiens, UniProt P22303, D105N); experiment: HuAChE inhibition kinetics; format: biochemical; settings: D74N HuAChE
# T1 sequence (P22303 32-614 D105N): as the sequence (P22303 32-614 W117F) above, with D74N, F86W counted along it
# [16] = biological target: Y124A HuAChE (Homo sapiens, UniProt P22303, Y155A); experiment: HuAChE inhibition kinetics; format: biochemical
# Sequence of Y124A HuAChE (P22303 32-614 Y155A): as the sequence (P22303 32-614 W117F) above, with F86W, Y124A counted along it
# [17] = biological target: W286A HuAChE (Homo sapiens, UniProt P22303, W317A); experiment: HuAChE inhibition kinetics; format: biochemical; settings: W286A HuAChE
# Sequence of W286A HuAChE (P22303 32-614 W317A): as the sequence (P22303 32-614 W117F) above, with F86W, W286A counted along it
# [18] = biological target: Y341A HuAChE (Homo sapiens, UniProt P22303, Y372A); experiment: HuAChE inhibition kinetics; format: biochemical; settings: Y341A HuAChE
# Sequence of Y341A HuAChE (P22303 32-614 Y372A): as the sequence (P22303 32-614 W117F) above, with F86W, Y341A counted along it
# [19] = biological target: F295A/F338A HuAChE (Homo sapiens, UniProt P22303, F326A/F369A); experiment: HuAChE inhibition kinetics; format: biochemical; settings: F295A/F338A HuAChE
# Sequence of F295A/F338A HuAChE (P22303 32-614 F326A/F369A): as the sequence (P22303 32-614 W117F) above, with F86W, F295A, F338A counted along it
# [20] = biological target: F295A/F338A/V407F HuAChE (Homo sapiens, UniProt P22303, F326A/F369A/V438F); experiment: HuAChE inhibition kinetics; format: biochemical; settings: F295A/F338A/V407F HuAChE
# Sequence of F295A/F338A/V407F HuAChE (P22303 32-614 F326A/F369A/V438F): as the sequence (P22303 32-614 W117F) above, with F86W, F295A, F338A, V407F counted along it
# [21] = biological target: Y72N/Y124Q/W286A HuAChE (Homo sapiens, UniProt P22303, W317A/Y103N/Y155Q); experiment: HuAChE inhibition kinetics; format: biochemical
# Sequence of Y72N/Y124Q/W286A HuAChE (P22303 32-614 Y103N/Y155Q/W317A): as the sequence (P22303 32-614 W117F) above, with Y72N, F86W, Y124Q, W286A counted along it
# [22] = biological target: F295L/F297V/Y337A HuAChE (Homo sapiens, UniProt P22303, F326L/F328V/Y368A); experiment: HuAChE inhibition kinetics; format: biochemical; settings: F295L/F297V/Y337A HuAChE
# Sequence of F295L/F297V/Y337A HuAChE (P22303 32-614 F326L/F328V/Y368A): as the sequence (P22303 32-614 W117F) above, with F86W, F295L, F297V, Y337A counted along it
# [23] = biological target: Y72N/Y124Q/W286A/ F295L/F297V/Y337A HuAChE (Homo sapiens, UniProt P22303, F326L/F328V/W317A/Y103N/Y155Q/Y368A); experiment: HuAChE inhibition kinetics; format: biochemical; settings: Y72N/Y124Q/W286A/F295L/F297V/Y337A HuAChE
# Sequence of Y72N/Y124Q/W286A/ F295L/F297V/Y337A HuAChE (P22303 32-614 Y103N/Y155Q/W317A/F326L/F328V/Y368A): as the sequence (P22303 32-614 W117F) above, with Y72N, F86W, Y124Q, W286A, F295L, F297V, Y337A counted along it
# [24] = biological target: HuBChE-Wild Type (Homo sapiens, UniProt P06276); experiment: HuBChE inhibition kinetics; format: biochemical; settings: HuBChE-Wild Type
# Sequence of HuBChE-Wild Type (P06276 29-602): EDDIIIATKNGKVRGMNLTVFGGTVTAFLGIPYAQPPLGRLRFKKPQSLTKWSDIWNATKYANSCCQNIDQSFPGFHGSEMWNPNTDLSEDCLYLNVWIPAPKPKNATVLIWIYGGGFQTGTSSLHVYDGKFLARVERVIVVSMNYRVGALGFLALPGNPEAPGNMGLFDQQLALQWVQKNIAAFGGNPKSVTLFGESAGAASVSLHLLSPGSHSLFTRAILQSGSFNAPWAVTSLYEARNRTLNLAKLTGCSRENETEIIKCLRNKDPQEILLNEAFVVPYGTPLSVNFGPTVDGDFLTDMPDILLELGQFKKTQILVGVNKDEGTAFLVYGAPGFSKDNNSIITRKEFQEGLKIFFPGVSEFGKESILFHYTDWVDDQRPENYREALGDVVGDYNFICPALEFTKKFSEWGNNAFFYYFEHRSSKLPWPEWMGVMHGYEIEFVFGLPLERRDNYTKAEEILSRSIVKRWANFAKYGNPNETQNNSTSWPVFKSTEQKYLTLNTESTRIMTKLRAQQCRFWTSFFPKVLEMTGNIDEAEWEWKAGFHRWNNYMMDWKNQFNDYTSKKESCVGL
# [25] = biological target: T1, D74N HuAChE; settings: D74N HuAChE vs wild type; cited from earlier work
# Sequence of W86A HuAChE (P22303 32-614 W117A): as the sequence (P22303 32-614 W117F) above, with F86A counted along it
# Sequence of Wild Type HuAChE (P22303 32-614): as the sequence (P22303 32-614 W117F) above, with F86W counted along it
structure (smiles),measurement,setting,value
"CN(C)C(=O)Oc1ccc[n+](C)c1 [Pyridostigmine, pyridostigmine bromide]","k2, carbamylation rate constant",[1],0.77 ± 0.3 min⁻¹
same,"k2, carbamylation rate constant",[2],0.68 ± 0.2 min⁻¹
same,"k2, carbamylation rate constant",[3],0.65 ± 0.2 min⁻¹
same,"k2, carbamylation rate constant",[4],1.80 ± 0.3 min⁻¹
same,"k2, carbamylation rate constant",[5],0.80 ± 0.1 min⁻¹
same,"k2, carbamylation rate constant",[6],0.68 ± 0.2 min⁻¹
same,"k2, carbamylation rate constant",[7],1.20 ± 0.4 min⁻¹
same,"k2, carbamylation rate constant",[8],0.20 ± 0.04 min⁻¹
same,"k2, carbamylation rate constant",[9],0.20 ± 0.05 min⁻¹
same,"k2, carbamylation rate constant",[10],1.00 ± 0.2 min⁻¹
same,"k2, carbamylation rate constant",[11],0.15 ± 0.02 min⁻¹
same,"k2, carbamylation rate constant",[12],0.12 ± 0.02 min⁻¹
same,"ki, bimolecular rate constant of carbamylation",[12],0.76±0.2 × 10^−4 M^−1min^−1
same,"k2, carbamylation rate constant",[13],0.17 ± 0.02 min⁻¹
same,"k2, carbamylation rate constant",[14],0.64 ± 0.1 min⁻¹
same,"k2, carbamylation rate constant",[15],1.0 ± 0.1 min⁻¹
same,"k2, carbamylation rate constant",[16],0.1 ± 0.01 min⁻¹
same,"ki, bimolecular rate constant of carbamylation",[16],13.8±0.4 × 10^−4 M^−1min^−1
same,"k2, carbamylation rate constant",[17],1.8 ± 0.5 min⁻¹
same,"ki, bimolecular rate constant of carbamylation",[17],14.0±0.6 × 10^−4 M^−1min^−1
same,"k2, carbamylation rate constant",[18],1.0 ± 0.1 min⁻¹
same,"k2, carbamylation rate constant",[19],0.5 ± 0.4 min⁻¹
same,"ki, bimolecular rate constant of carbamylation",[19],0.8±0.5 × 10^−4 M^−1min^−1
same,"k2, carbamylation rate constant",[20],0.5 ± 0.15 min⁻¹
same,"k2, carbamylation rate constant",[21],0.80 ± 0.07 min⁻¹
same,"ki, bimolecular rate constant of carbamylation",[21],9.3±0.8 × 10^−4 M^−1min^−1
same,"k2, carbamylation rate constant",[22],0.55 ± 0.09 min⁻¹
same,"k2, carbamylation rate constant",[23],0.40 ± 0.1 min⁻¹
same,"ki, bimolecular rate constant of carbamylation",[23],0.6±0.1 × 10^−4 M^−1min^−1
same,"k2, carbamylation rate constant",[24],0.30 ± 0.03 min⁻¹
CC[N+](C)(C)c1cccc(O)c1 [edrophonium],increase of the dissociation constant,[25],5 fold
